Data reported in US8309573B2, “Salt of isoquinoline compound and crystal thereof” (Mitsubishi Tanabe Pharma Corporation, priority 2007, dated 2012).

Key:
physchem = conditions: water, thermodynamic from solid
Procedure: This was subjected to ultrasonication on a water bath for 10 min, and gently shaken in a twin mixer (TM-282, AS ONE Corporation) at room temperature for 1 hr. After shaking, the mixture was centrifuged by a portable ultracentrifuge (10000 rpm×10 min., MC-150, TOMY SEIKO CO., LTD.) and the supernatant was filtered (Millex-LH, Millipore Corporation).

[1] = Hygroscopicity comparison test (adsorption isotherm curve measurement); type: physicochemical; conditions: 0-95% RH, 25° C.
Procedure: An adsorption isotherm curve measurement was performed under the following conditions.
apparatus: DVS-1 (sms Ltd., UK)
measurement temperature: 25° C.
measurement operation: a sample was measured in a sample cup, sample weight was measured by successively changing the relative humidity at 50→0→95→0→50% RH.
The smaller weight change due to humidity is an important factor for the management of charge amount of the bulk drug for pharmaceutical products.

[2] = Chemical stability comparison test (one month preservation, purity by HPLC); type: physicochemical
Procedure: The sample after preservation was measured for chemical purity by HPLC. The HPLC conditions are shown below. • apparatus: SHIMADZU Corporation • column: Inertsil ODS-3V (GL Sciences Inc.) inner diameter 4.6 mm and length 150 mm • column oven: 40° C. • detection wavelength: 234 nm • measurement operation: a sample (about 1 mg) was measured in a vial container for HPLC, dissolved in a mixture (1 mL) of water/acetonitrile=1:1, and analyzed under the following conditions. • eluent composition: SOLUTION A 0.1% trifluoroacetic acid/water • SOLUTION B 0.1% trifluoroacetic acid/acetonitrile • gradient: SOLUTION B concentration: 5→100% (60 min) • mobile phase flow rate: 1.0 mL/min • injection volume: 5 μL
An increase rate of related substances after one month preservation was determined from the peak area in the HPLC chromatogram.

[3] = preserved one month at 40° C. 75% RH

Row | Compound | solubility (physchem) | moisture absorption [1] | moisture absorption, corresponding hydrated water [1] | Increase rate of related substances (%) ([2]; preserved one month at 30° C.) | Increase rate of related substances (%) ([2]; preserved one month at 40° C.) | Increase rate of related substances (%) [2, 3] | Increase rate of related substances (%) ([2]; preserved one month at 50° C.)
1 | Cc1cccc2c(=O)[nH]c(CCN3CCC[C@@H]3CO)cc12.Cl.O.O [monohydrochloride dihydrate, (R)-3-[2-(2-hydroxymethylpyrrolidin-1-yl)ethyl]-5-methyl-2H-isoquinolin-1-one monohydrochloride dihydrate] | 45 mg/mL | 11 % (w/w) | 2 hydrated water | – | – | – | –
2 | Cc1cccc2c(=O)[nH]c(CCN3CCC[C@@H]3CO)cc12 [free form, (R)-3-[2-(2-hydroxymethylpyrrolidin-1-yl)ethyl]-5-methyl-2H-isoquinolin-1-one] | ≤ 1 mg/mL | – | – | +0.16% | +0.18% | +0.28% | +1.30%
3 | anhydrous (R)-3-[2-(2-hydroxymethylpyrrolidin-1-yl)ethyl]-5-methyl-2H-isoquinolin-1-one monophosphate | – | 0.5 % (w/w) | 0.1 hydrated water | −0.01% | −0.01% | −0.02% | −0.01%
